In brackets after ≈: the same amount, converted by molar mass. Several values for one entry are separate records, joined by “and”; a condition that tells them apart may be missing. Identical values can stand only once.
Experiments:
S. pyogenes DH-3467 = assay: Broth microdilution MIC/MBC; assay type: cell-based, Streptococcus pyogenes; conditions: for MIC: Streptococcus pyogenes, DH3467, 24 h, read-out: MIC (Mean ± SEM); for MBC/MIC: value in brackets
Method: (§1) The broth microdilution method was taken as a basis to detect the MICs of pyrazole compounds against tested clinical isolates, according to the Clinical Laboratory and Standards Institute guidelines. The broth cultures were used to prepare the bacterial inoculums, and the suspensions were adjusted to the standard 0.5 McFarland turbidity. Stock solutions of the synthesized pyrazoles were prepared in pure DMSO and further serially diluted with TS broth in the concentration range from 128 µg/mL to 0.0625 µg/mL. A well containing noninoculated TS broth, free of any antimicrobial agents, was also included to ensure the medium sterility, while Erythromycin and Amikacin served as positive controls. Bacterial growth was determined by adding 20 µL of 0.5% TTC (2,3,5-triphenyltetrazolium chloride) aqueous solution. […] All experiments were repeated three times. The bactericidal effect from each concentration of the pyrazole and pyrazolo[1,5-a]pyrimidine derivatives showing growth inhibition was further studied. For this study, a loopful of 5 µL was taken from each no-visible growth tube and streaked onto plates of TS agar.

P. aeruginosa biofilm = assay: Crystal violet biofilm inhibition assay; assay type: cell-based; conditions: compounds at their MICs, crystal violet OD570
Method: (§2) The microtiter plate method was used to evaluate the active pyrazoles’ inhibitory activities on the strong biofilm-forming bacterial strains. This method was carried out as described, with some modifications. The antibiofilm effects of tested pyrazoles are presented as a percentage change from untreated bacterial controls. Overnight cultures of micro-organisms in the TSB medium with 10% (wt/vol) glucose were prepared as 10^8 CFU/mL, and then 100 µL was dispensed into each test well. Then, 100 µL of different concentrations of compounds, at their MICs, were dispensed into each well. The negative control contained only TSB, whereas the positive control contained cell cultures without compound addition. The supernatant was decanted and each well gently rinsed three times with 300 µL of sterile distilled water and discarded after incubation at 37 °C for 48 h. The plates were dried with air for 40 min. They were stained with 0.1% (wt/vol) crystal violet at room temperature for 30 min and washed three times with sterile distilled water. Afterward, the crystal violet was solubilized in 95% ethanol, and the absorbance was read in a microplate reader (MicroplatePhotometer and Multiskan FC) at 570 nm. This test was performed in triplicate, and the mean was taken as an average of three readings. The percentage of biofilm inhibition was calculated according to Equation (1):(1) Biofilm eradication %=OD positivecontrol−OD sample /OD positive control×100

C. violaceum CV026 = assay: Quorum-sensing inhibition bioassay on Soft Top agar; assay type: cell-based, Chromobacterium violaceum; conditions: CV026 biosensor strain, sub-MIC
Method: The anti-QS potential of the tested compounds was explored as described. Briefly, an overnight bacterial suspension of the indicator organism C. violaceum CV026 was prepared in a concentration of 10^6 CFU/mL, and an aliquot of 200 µL was seeded in 5 mm of Soft Top agar (1.3 g agar, 2.0 g tryptone, 1.0 g NaCl, and 200 mL deionized water), supplemented with 20 µL of 0.25 µg/mL C6-HSL (N-hexanoyl-L-homoserine lactone), added as an exogenous AHL source. Wells were cut in the center of the plate after incubation for 30 min and then filled with 50 µL of sub-MICs of each most-active pyrazole hybrid. DMSO was used as a negative control. The plates were incubated at 28 °C for 48 h. Inhibition of violacein production by the indicator strain around the well, indicated by the presence of a white circle surrounded by a purple halo, was considered as positive for QS interference. For further investigation to determine the anti-QS activity for the pyrazole against the biofilm-forming bacterial isolates, an in vitro screening was performed. This was carried out by inoculation of 200 µL from an O/N CV026 culture onto plates of Soft Top agar. Wells of 8 mm diameter were separately made and filled with 90 µL of each biofilm-forming bacterial isolate (10^6 CFU/mL), plus 10 µL of each active pyrazole derivative (sub-MICs). Wells containing the bacterial isolates without treatment were used as controls. The signal diffusion zone diameter produced during the bacterial growth was measured in the presence of pyrazole and pyrazolo[1,5-a]pyrimidine derivatives and compared with the zone diameter of the violacein production by CV026.

E. faecalis DH-5478 = assay: Broth microdilution MIC/MBC; assay type: cell-based, Enterococcus faecalis; conditions: for MIC: Enterococcus faecalis, DH5478, 24 h, read-out: MIC (Mean ± SEM); for MBC/MIC: value in brackets
Method: as §1

P. aeruginosa DH-5698 [1] = assay: Broth microdilution MIC/MBC; assay type: cell-based, Pseudomonus aeruginosa; conditions: for MIC: Pseudomonas aeruginosa, DH5698, 24 h, read-out: MIC (Mean ± SEM); for MBC/MIC: value in brackets
Method: as §1

S. aureus DH-432 = assay: Broth microdilution MIC/MBC; assay type: cell-based, Staphylococcus aureus; conditions: for MIC: Staphylococcus aureus, DH432, 24 h, read-out: MIC (Mean ± SEM); for MBC/MIC: value in brackets
Method: as §1

hCA-I = biological target: T1, hCA-I (Homo sapiens, UniProt P00915); assay: Carbonic anhydrase isoenzyme inhibition assay; assay type: biochemical; conditions: for Ki: Lineweaver–Burk graphs
T1 construct: from tissue; host or cells: human erythrocytes (hemolysate)
T1 sequence (P00915 whole entry): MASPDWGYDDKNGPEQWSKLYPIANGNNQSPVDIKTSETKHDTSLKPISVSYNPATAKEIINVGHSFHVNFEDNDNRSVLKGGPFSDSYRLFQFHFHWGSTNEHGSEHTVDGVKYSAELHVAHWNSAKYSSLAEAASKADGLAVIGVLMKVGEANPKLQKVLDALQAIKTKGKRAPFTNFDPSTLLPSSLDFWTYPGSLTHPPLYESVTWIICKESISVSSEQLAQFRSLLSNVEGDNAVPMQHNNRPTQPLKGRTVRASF
Method: (§3) The purification of both human cytosolic CA isoforms was carried out as previously described, using a simple one-step procedure of Sepharose-4B-L-tyrosine-sulfanilamide affinity chromatography. […] The carbonic anhydrase isoenzymes’ activities were determined in accordance with the previous study. […] For the designation of the inhibition efficacy of each novel pyrazole and for the pyrazolo[1,5-a]pyrimidine derivatives on both hCA isoenzymes, an activity (%) graph was drawn. The IC50 values were obtained from activity (%) versus compounds plots. The Ki values were calculated using three concentrations for each derivative.

hCA-II = biological target: T2, hCA-II (Homo sapiens, UniProt P00918); assay: Carbonic anhydrase isoenzyme inhibition assay; assay type: biochemical; conditions: for Ki: Lineweaver–Burk graphs
T2 construct: from tissue; host or cells: human erythrocytes (hemolysate)
Method: as §3

P. aeruginosa DH-5698 [2] = assay: Agar well-diffusion assay; assay type: cell-based, Pseudomonus aeruginosa; conditions: Pseudomonas aeruginosa, DH5698; P. aeruginosa DH-5698; 50 µL of 10 mM per well; read-out: Diameter of Inhibition Zones (AZOI)
Method: The synthesized compounds were initially screened for their in vitro antibacterial activity against the different Gram-positive and Gram-negative bacteria, tested using the agar well-diffusion assay. The turbidity of the bacterial suspensions was established to the 0.5 McFarland turbidity standard. The activity was performed on TS agar plates. The bacteria were spread on the surface of the agar plates, and 10 mm wells were screwed into the agar plates. The assay was performed under aseptic conditions. An aliquot of 50 µL of each tested compound (10 mM) was added to the wells, and the plates were incubated overnight at 37 °C. Both Erythromycin and Amikacin antibiotic disks were used as positive control, while DMSO solvent was used as a negative control in this study. The diameters of inhibition zones were measured and recorded in mm. A comparative study of the synthesized compounds was determined. The experiment was performed in triplicates.

S. aureus biofilm = assay: Crystal violet biofilm inhibition assay; assay type: cell-based; conditions: compounds at their MICs, crystal violet OD570
Method: as §2

Compound | MIC (S. pyogenes DH-3467) | MBC/MIC (S. pyogenes DH-3467) | Biofilm Eradication % (P. aeruginosa biofilm) | Concentration at which anti-QS activity (visible halo zone) was observed (C. violaceum CV026) | MIC (E. faecalis DH-5478) | MBC/MIC (E. faecalis DH-5478) | MIC (P. aeruginosa DH-5698 [1]) | MBC/MIC (P. aeruginosa DH-5698 [1]) | MIC (S. aureus DH-432) | MBC/MIC (S. aureus DH-432) | IC50 (hCA-I) | Ki (hCA-I) | IC50 (hCA-II) | Ki (hCA-II) | zone of inhibition at 10000 µM (P. aeruginosa DH-5698 [2]) | Biofilm Eradication % (S. aureus biofilm) | MIC (Mean ± SEM) (S. aureus DH-432; 24 h)
CCOC(=O)c1ccc(N=Nc2c(N)n[nH]c2N)cc1 [Compound 3a, Ethyl 4-((3,5-diamino-1H-pyrazol-4-yl)diazenyl)benzoate] | 0.125 ± 0.3 mg/L (≈ 0.456 µM) | 0.5 | 88% and > 80% | 0.0625 µg/mL | 0.125 ± 0.1 mg/L (≈ 0.456 µM) | 0.5 | 0.125 ± 0.2 mg/L (≈ 0.456 µM) | 0.5 | 0.125 ± 0.3 mg/L (≈ 0.456 µM) | 0.5 | 0.0923 µM | 0.0888 µM | 0.0732 µM | 0.0918 µM | 30.8 mm | – | –
CCOC(=O)c1ccc(N=Nc2c(N=Cc3ccc(N(C)C)cc3)n[nH]c2N)cc1 [Compound 5a, Ethyl 4-((5-amino-3-((4-(dimethylamino)benzylidene)amino)-1H-pyrazol-4-yl)diazenyl)benzoate] | 0.5 ± 0.1 mg/L (≈ 1.23 µM) | 0.5 | 63% and 63 ± 0.52% | 0.187 µg/mL | 0.5 ± 0.2 mg/L (≈ 1.23 µM) | 0.5 | 0.5 ± 0.1 mg/L (≈ 1.23 µM) | 0.5 | 0.25 mg/L (≈ 0.617 µM) | 0.5 | 0.138 µM | 0.176 µM | 0.161 µM | 0.144 µM | 28.3 mm | 69% and 69 ± 0.24% | 0.25 ± 0.2 mg/L (≈ 0.617 µM)
CCOC(=O)c1ccc(N=Nc2c(N)nn3c(C)cc(C)nc23)cc1 [Compound 6, ethyl-4-((2-amino-5,7-dimethylpyrazolo[1,5-a]pyrimidin-3-yl)diazenyl)benzoate] | 0.25 ± 0.3 mg/L (≈ 0.739 µM) | 0.5 | 76% and 76 ± 0.52% | 0.125 µg/mL | 0.375 ± 0.2 mg/L (≈ 1.11 µM) | 0.5 | 0.375 ± 0.4 mg/L (≈ 1.11 µM) | 0.5 | 0.187 ± 0.1 mg/L (≈ 0.553 µM) | 0.5 | 0.169 µM | 0.153 µM | 0.13 µM | 0.146 µM | 28.8 mm | 80% and 80 ± 0.63% | –
CCOC(=O)c1ccc(N=Nc2c(N)nn3c(N)c(C#N)c(-c4ccc(N(C)C)cc4)nc23)cc1 [Compound 9a, Ethyl-4-((2,7-diamino-6-cyano-5-(4-(dimethylamino)phenyl)pyrazolo[1,5-a]pyrimidin-3-yl)diazenyl)benzoate] | 0.25 ± 0.2 mg/L (≈ 0.532 µM) | 0.5 | 66% and 66 ± 0.9% | 0.187 µg/mL | 0.5 ± 0.1 mg/L (≈ 1.06 µM) | 0.5 | 0.375 ± 0.3 mg/L (≈ 0.799 µM) | 0.5 | 0.25 ± 0.2 mg/L (≈ 0.532 µM) | 0.5 | 0.123 µM | 0.102 µM | 0.142 µM | 0.136 µM | 28.5 mm | 72% and 72 ± 0.81% | –
CCOC(=O)c1ccc(N=Nc2c(N)nn3c(O)c(C#N)c(-c4ccc(N(C)C)cc4)nc23)cc1 [Compound 10a, Ethyl-4-((2-amino-6-cyano-5-(4-(dimethylamino)phenyl)-7-hydroxypyrazolo[1,5-a]pyrimidin-3-yl)diazenyl)benzoate] | 0.187 ± 0.2 mg/L (≈ 0.397 µM) | 0.5 | 80% and > 80% | 0.0625 µg/mL | 0.187 ± 0.1 mg/L (≈ 0.397 µM) | 0.5 | 0.187 ± 0.1 mg/L (≈ 0.397 µM) | 0.5 | 0.125 ± 0.2 mg/L (≈ 0.266 µM) | 0.5 | 0.153 µM | 0.144 µM | 0.122 µM | 0.139 µM | 30.1 mm | – | –
